Data from the NIST ThermoML archive (doi:10.1016/j.jct.2016.08.010).

Assay: xn = mol fraction of the nth substance listed
Settings: 100 kPa, Liquid; for speed of sound: Frequency=3 MHz, Sing-around technique in a fixed-path interferometer; for mass density: Vibrating tube method

CCn1cc[n+](C)c1.F[B-](F)(F)F [1-ethyl-3-methylimidazolium tetrafluoroborate] + CCCCn1cc[n+](C)c1.F[B-](F)(F)F
Settings	mass density, 293.15 K [kg/m3]	mass density, 298.15 K [kg/m3]	mass density, 303.15 K [kg/m3]	mass density, 308.15 K [kg/m3]	speed of sound, 293.15 K [m/s]	speed of sound, 298.15 K [m/s]	speed of sound, 303.15 K [m/s]	speed of sound, 308.15 K [m/s]
x2 = 0	1283.9	1279.9	1276.3	1272.1	1631.1	1619.2	1607.4	1596.2
x2 = 0.0728	1274.4	1270.8	1267.5	1263.8	1628.1	1616	1604	1592.6
x2 = 0.1143	1269.1	1265.7	1262.6	1259.1	1626.4	1614.2	1602.2	1590.6
x2 = 0.148	1264.9	1261.6	1258.7	1255.3	1625	1612.7	1600.7	1589.1
x2 = 0.1737	1261.8	1258.6	1255.7	1252.4	1624	1611.6	1599.5	1587.9
x2 = 0.2204	1256.4	1253.2	1250.5	1247.4	1622	1609.6	1597.5	1585.7
x2 = 0.2684	1251.1	1248	1245.3	1242.3	1620	1607.5	1595.3	1583.5
x2 = 0.3155	1246.2	1243.1	1240.5	1237.6	1618	1605.4	1593.3	1581.3
x2 = 0.3619	1241.6	1238.6	1236	1233.2	1616	1603.3	1591.2	1579.1
x2 = 0.4167	1236.6	1233.6	1231.1	1228.3	1613.6	1600.8	1588.7	1576.6
x2 = 0.4759	1231.8	1228.7	1226.1	1223.4	1610.8	1598	1585.9	1573.7
x2 = 0.5282	1227.9	1224.7	1222.2	1219.4	1608.3	1595.5	1583.3	1571.1
x2 = 0.5742	1224.7	1221.5	1218.9	1216.1	1605.9	1593.1	1581	1568.8
x2 = 0.6356	1220.9	1217.6	1214.9	1212.1	1602.7	1589.8	1577.7	1565.6
x2 = 0.6835	1218.1	1214.8	1212.1	1209.1	1600	1587.1	1575.1	1563
x2 = 0.7381	1215.3	1211.8	1209	1206	1596.7	1583.9	1572	1559.8
x2 = 0.7892	1212.8	1209.2	1206.3	1203.2	1593.5	1580.7	1568.8	1556.8
x2 = 0.8364	1210.6	1206.9	1203.9	1200.6	1590.4	1577.6	1565.8	1553.8
x2 = 0.8932	1208	1204.2	1201	1197.6	1586.4	1573.7	1562	1550

CCCCn1cc[n+](C)c1C.F[B-](F)(F)F [1-butyl-2,3-dimethylimidazolium tetrafluoroborate] + CCCCn1cc[n+](C)c1.F[B-](F)(F)F
Settings	mass density, 293.15 K [kg/m3]	mass density, 298.15 K [kg/m3]	mass density, 303.15 K [kg/m3]	mass density, 308.15 K [kg/m3]	speed of sound, 293.15 K [m/s]	speed of sound, 298.15 K [m/s]	speed of sound, 303.15 K [m/s]	speed of sound, 308.15 K [m/s]
x1 = 0.0917	1198.6	1195.3	1192.4	1189.4	1587.2	1574.1	1562.2	1550
x1 = 0.1281	1197.1	1194	1191.4	1188.6	1590.7	1577.4	1565.4	1553.1
x1 = 0.1633	1195.8	1193	1190.4	1187.9	1594	1580.6	1568.4	1556
x1 = 0.2059	1194.4	1191.8	1189.5	1187.1	1597.8	1584.3	1572	1559.5
x1 = 0.2455	1193.3	1190.9	1188.6	1186.4	1601.3	1587.7	1575.3	1562.7
x1 = 0.2967	1192.2	1189.9	1187.8	1185.7	1605.7	1591.9	1579.5	1566.8
x1 = 0.3424	1191.3	1189.2	1187.1	1185.2	1609.5	1595.7	1583.1	1570.4
x1 = 0.3974	1190.6	1188.6	1186.6	1184.8	1613.9	1600.1	1587.4	1574.6
x1 = 0.4496	1190.2	1188.3	1186.3	1184.6	1618.1	1604.1	1591.5	1578.6
x1 = 0.4997	1190	1188.2	1186.2	1184.5	1622	1608	1595.2	1582.4
x1 = 0.5418	1190	1188.2	1186.2	1184.5	1625.2	1611.2	1598.4	1585.5
x1 = 0.5941	1190.1	1188.3	1186.4	1184.7	1629.1	1615.1	1602.2	1589.4
x1 = 0.6398	1190.3	1188.5	1186.7	1184.9	1632.5	1618.5	1605.6	1592.9
x1 = 0.6873	1190.6	1188.9	1187	1185.3	1636	1622	1609.1	1596.3
x1 = 0.7388	1191	1189.3	1187.4	1185.7	1639.9	1625.9	1612.9	1600.1
x1 = 0.7963	1191.6	1189.9	1187.9	1186.1	1644.1	1630.1	1617.1	1604.4
x1 = 0.8482	1192.1	1190.4	1188.4	1186.5	1648	1634	1621	1608.4
x1 = 0.8903	1192.6	1190.8	1188.7	1187	1651.2	1637.2	1624.2	1611.4
x1 = 1	1193.5	1191.8	1189.7	1187.9	1659.7	1645.7	1632.5	1619.8
